Molecules are shown by their SMILES.

The series in a line: method code G-GLC, from DOI: 10.1021/es00162a015, PMID: 19995068.
The molecule `Brc1ccccc1-c1ccccc1` gave a log partition coefficient (logP) of 4.59.
`Brc1cccc(-c2ccccc2)c1` came in with a logP of 4.85.
Then `Brc1ccc(-c2ccccc2)cc1`, with 4.96; and `Cc1ccc(-c2ccc(C)cc2)cc1`, with 5.09; and `Clc1c(Cl)c(Cl)c2c(c1Cl)Oc1ccccc1O2`, with 6.2.
The result for `Clc1ccc2oc3ccc(Cl)cc3c2c1` reads 5.44; that for `Cc1ccc(-c2ccccc2)cc1`, 4.63; that for `Brc1ccc(Br)c(-c2cc(Br)c(Br)cc2Br)c1`, 7.1.
The result for `Brc1ccc(-c2ccc(Br)cc2)cc1` reads 5.72.
For `Brc1c(Br)c(Br)c(-c2c(Br)c(Br)c(Br)c(Br)c2Br)c(Br)c1Br`, the logP turned out to be 8.58.
`Clc1ccc2c(c1)Oc1ccccc1O2` gave a logP of 4.94.
